Measurements: US20250185657A1, “PEST CONTROLLING AGENT” (priority 2022, published 2025)

Experiments:
Format in all cases: in vivo
[1] = tested on: Diamondback Moth (Plutella xylostella); experiment: Diamondback moth control test (leaf piece dipping treatment); details: 120 h, cabbage leaf piece dipped, third instar, five days after the treatment, 25° C., read-out: insect mortality rate
Description: (§1) The insect mortality rate and the feeding damage prevention effect shown in the Biological Test Examples were calculated based on the following expression.
Biological Test Example 3: Diamondback Moth (Plutella xylostella) Control Test (Leaf Piece Dipping Treatment)
(§2) A cabbage leaf was cut into a piece having a diameter of 5.0 cm, and this cabbage leaf piece was immersed in 20 mL of a diluted solution of the test compound diluted to 200 ppm, and air-dried. After air-drying, the cabbage leaf piece was placed in a plastic cup, 10 third instar diamondback moth nymphs were released thereinto, the cup was covered with a lid, and the nymphs were reared in a constant temperature chamber at 25° C.

[2] = tested on: Tobacco Cutworm (Spodoptera litura); experiment: Tobacco cutworm control test (leaf piece dipping treatment); details: 120 h, cabbage leaf piece dipped, second instar larvae, five days after the treatment, 25° C., read-out: insect mortality rate
Description: as §1
Biological Test Example 5: Tobacco Cutworm (Spodoptera litura) Control Test (Leaf Piece Dipping Treatment)
as §2, with “5 second” for “10 third”, “tobacco cutworm larvae” for “diamondback moth nymphs”, “larvae” for “nymphs”

[3] = tested on: Cotton Aphid (Aphis gossypii); experiment: Cotton aphid control test (leaf piece application treatment); details: 120 h, sprayed on cucumber leaf piece, nymphs, five days after the treatment, 25° C., read-out: insect mortality rate
Description: as §1
Biological Test Example 1: Cotton Aphid (Aphis gossypii) Control Test (Leaf Piece Application Treatment)
A cucumber leaf was cut into a piece having a diameter of 3.5 cm and placed on absorbent cotton moistened with water. Two adult cotton aphids were released thereon, and allowed to lay nymphs for 24 hours, and then the adults were removed. 2 mL of a diluted solution of the test compound diluted to 200 ppm was applied onto the resulting cucumber leaf by using an spray tower. The cucumber leaf was air-dried and then placed in a plastic cup together with the absorbent cotton, the cup was covered with a lid, and the nymphs were reared in a constant temperature chamber at 25° C.

CCS(=O)(=O)c1cc(-c2ccc(F)cc2)cnc1C1=NOCN1c1ccc(C(F)(F)F)cn1 [Compound 27, 3-(3-(ethylsulfonyl)-5-(4-fluorophenyl)pyridin-2-yl)-4-(5-(trifluoromethyl)pyridin-2-yl)-4,5-dihydro-1,2,4-oxadiazole] showed a mortality at 200 ppm [1] of no less than 80% and a mortality at 200 ppm [2] of no less than 80%.
In the case of CCS(=O)(=O)c1cc(-c2ccc(OC(F)(F)F)cc2)cnc1-c1noc(=O)n1-c1ccc(C(F)(F)F)cn1 [Compound 4, 3-(3-(ethylsulfonyl)-5-(4-(trifluoromethoxy)phenyl)pyridin-2-yl)-4-(5-(trifluoromethyl)pyridin-2-yl)-1,2,4-oxadiazol-5(4H)-one], the mortality at 200 ppm [1] is reported as no less than 80%, the mortality at 200 ppm [2] is reported as no less than 80% and the mortality at 200 ppm [3] is reported as no less than 80%.
CCS(=O)(=O)c1cc(-c2ccc(F)cc2)cnc1C1=NOCCN1c1ccc(C(F)(F)F)cn1 [Compound 29, 3-(3-(ethylsulfonyl)-5-(4-fluorophenyl)pyridin-2-yl)-4-(5-(trifluoromethyl)pyridin-2-yl)-5,6-dihydro-4H-1,2,4-oxadiazine] gave a mortality at 200 ppm [1] of no less than 80%, a mortality at 200 ppm [2] of no less than 80% and a mortality at 200 ppm [3] of no less than 80%.
In the case of CN(C)S(=O)(=O)c1cc(-c2ccc(OC(F)(F)F)cc2)cnc1-c1noc(=O)n1-c1ccc(C(F)(F)F)cn1 [Compound 195, N,N-dimethyl-2-(5-oxo-4-(5-(trifluoromethyl)pyridin-2-yl)-4,5-dihydro-1,2,4-oxadiazol-3-yl)-5-(4-(trifluoromethoxy)phenyl)pyridine-3-sulfonamide], the mortality at 200 ppm [1] is reported as no less than 80% and the mortality at 200 ppm [2] is reported as no less than 80%.
With CCS(=O)(=O)c1cc(-c2ccc(F)cc2)cnc1-c1noc(=S)n1-c1ccc(C(F)(F)F)cn1 [Compound 18, 3-(3-(ethylsulfonyl)-5-(4-fluorophenyl)pyridin-2-yl)-4-(5-(trifluoromethyl)pyridin-2-yl)-1,2,4-oxadiazol-5(4H)-thione] the mortality at 200 ppm [1] was no less than 80%, the mortality at 200 ppm [2] was no less than 80% and the mortality at 200 ppm [3] was no less than 80%.
CCS(=O)(=O)c1cc(-c2ccc(F)cc2)cnc1-c1noc(=O)n1-c1ccc(C(F)(F)F)cn1 [Compound 2, 3-(3-(ethylsulfonyl)-5-(4-fluorophenyl)pyridin-2-yl)-4-(5-(trifluoromethyl)pyridin-2-yl)-1,2,4-oxadiazol-5(4H)-one] was tested, and the mortality at 200 ppm [1] was no less than 80%, the mortality at 200 ppm [2] was no less than 80% and the mortality at 200 ppm [3] was no less than 80%.
With CCS(=O)(=O)c1cc(-c2ccc(F)cc2)cnc1C1=NC(=COC)C(=O)N1c1ccc(C(F)(F)F)cn1 [Compound 34] the mortality at 200 ppm [1] was no less than 80%.
